Reference: patent US20250283050A1, “METHOD OF CANCER TREATMENT” (priority 2021, published 2025)
“Also recorded” adds a separate entry of the source.

Legend:
stomach cancer = experiment: en bloc tumor culture with chemotherapeutic agent and Hom-1-TAMs: stomach cancer; format: cell-based; details: agent plus Hom-1-TAMs
Procedure: (§1) Besides CRC, Hom-1-TAMs reverse immune polarity of PDAC and NSCLC TME (data not shown). The effects of Hom-1-TAM on tumoricidal effects of DOX were further explored on other tumor types, such as PDAC, NSLC, esophageal cancer and stomach cancers.
(§2) Additional chemo-reagents used in this study are listed below.
(§3) Tumor tissue were washed with 1×PBS buffer plus antibiotics and then cut into 0.5 cm pieces. Tissues were cultured in 2 mL of RPMI 1640 medium, supplemented with 2-10% FBS (Sigma) and 1% antibiotic-antimycotic solution (Gibco) in 24-well plate (Corning). The cultures were incubated at a 37° C., 5% CO2 incubator. […] To evaluate the effect of chemotherapeutic agents, chemo-reagents at indicated concentration or PBS was used instead of the anti-PD-1 antibody. For en bloc tissue and macrophage co-culture assay, 0.25×10^6 GFP-Hom-1 or control GFP transfected autologous macrophages of the same patient were added to the en bloc tissue culture wells. After gently shaking, the plate was incubated at 37° C., 5% CO2 for 3-5 days. The en bloc tissues were then subjected to single 1 cell isolation and analysis as described.

primary human CRC = experiment: NSG-PDX model of primary human CRC; format: in vivo; details: low dosage DOX 1.5 mg/kg tail-vein, alone
Procedure: To this end, NSG-PDX models of primary human CRC were established according to established methods. One week post-implantation of primary CRC tumors, the mice were tail-vein injected with a low dosage of Hom-1-TAMs. Three days later, low dosage DOX at 1.5 mg/kg were given through tail-vein injection and the DOX injection were repeated after two weeks.
Animal models of primary human colon cancers were developed previously. Briefly, 8-week-old NOD. Cg-Prkdc^scid Il2rg^tm1Wjl/SzJ mice (commonly known as NOD scid gamma, or NSG mice) were purchased from the Jackson Laboratory and maintained under specific pathogen-free conditions. Tumors were cut into around 0.5 cm pieces and then surgically implanted into subcutaneous space in flank of NSG mice. After one week of implantation, 0.25×10^6 TAMs transfected with GFP-Hom-1 or control GFP were injected into the mice through tail vain. After three days, 1.5 mg/Kg of DOX or PBS control were tail-vain injected and then repeated after two weeks. The tumor growth was monitored twice weekly and measured by a caliper for 6 weeks. Tumor volumes were calculated according to the formula ½ (length×width^2).

NFκB = experiment: NF-κB activation assay in monocytes; format: cell-based; details: primary human monocytes; 24 hour
Procedure: To determine whether NFκB plays a role in DOX activation of Hom-1 expression in monocytes, the effects of DOX on NFκB expression in primary monocytes were determined.
Human monocytes were treated with DOX at indicated concentration or PBS control. After 24 hour of treatment, the nuclear extracts were prepared using a nuclear extract kit (Active Motif, Cat. 40010). The DNA-binding activity of NF-κB p65 was determined using the TransAm assays (Active Motif, Cat. 40097) according to the manufacturer's instructions. Briefly, 2.5 μg nuclear extracts of each sample were incubated with immobilized NF-κB-specific oligonucleotides for 1 hr. The p65 protein bound to DNA was then visualized by incubation with p65-specific antibody, HRP-conjugated secondary antibody and developing solution and measured with a microplate reader with the absorbance at 450 nm.

[1] = system: TAMs and TIL in en bloc CRC; experiment: en bloc CRC culture: DOX effects on TAM plasticity and TIL differentiation; format: cell-based, human
Description: As DOX induces Hom-1 expression in TAMs in en bloc CRC culture (data not shown), this example illustrates the involvement of Hom-1 in mediating therapeutic effects of DOX.
Consistent with a key regulatory role of Hom-1 in mediating DOX effects on TAM plasticity and the immune landscape of TME, it was shown that knockdown of Hom-1 expression in TAMs attenuated DOX effects on the expression of M1 and M2 markers and inhibited DOX-induced secretion of pro-inflammatory cytokines (data not shown).
as §3

[2] = system: colorectal cancers (CRC) tumor cells; experiment: en bloc CRC culture: tumor cell death by PI-staining and FACS; format: cell-based, human
Procedure: (§4) To this end, en bloc colorectal cancers (CRC) or control non-tumor colon mucosal tissues from the same patients were incubated in RPMI based media and treated with DOX for 3 days. The effects of the treatment on tumor or normal cells were then determined by PI-staining and FACS analysis.
(§5) To this end, en bloc CRC tumor or control colon mucosal tissues were treated with DOX at low non-cytotoxic dosage and then co-cultured with TAMs transfected with Hom-1 or control GFP. After 5 days of co-culturing, the effects of the treatment on the survival of tumor or control normal epithelial cells were determined by PI staining and FACS analysis.
as §3
Single cell suspensions generated from en bloc tissue culture were washed with FACS staining solution (PBS plus 2% FBS), fixed and permeabilized (Invitrogen) and then stained with Ber-EP4 antibodies for normal epithelial cells and CK7, CK19 and CK20 for cancer cells for 30 minutes on ice. After washes with FACS staining solution, cells were stained with FITC-conjugated secondary antibodies for 30 minutes on ice. The cells were then washed with FACS staining solution and fixed in 2% paraformaldehyde in PBS for 30 min or overnight. The cells were washed and resuspended in 200 μL of FACS staining solution and 5 μL of PI staining solution (eBioscience/Fisher Scientific) were added in the solution for 15 minutes. Cell viability were then analyzed with a flow cytometry.

PDAC = experiment: en bloc tumor culture with chemotherapeutic agent and Hom-1-TAMs: PDAC; format: cell-based; details: agent plus Hom-1-TAMs
Procedure: as §1, §2, §3

esophageal cancer = experiment: en bloc tumor culture with chemotherapeutic agent and Hom-1-TAMs: esophageal cancer; format: cell-based; details: agent plus Hom-1-TAMs
Procedure: as §1, §2, §3

[3] = system: NFκB binding to Hom-1 promoter; experiment: ChIP assay of NFκB at Hom-1 promoter; format: cell-based; details: human monocytes, 1 μM DOX, 24 hours
Procedure: Human monocytes were treated with 1 μM DOX or PBS control for 24 hours and harvested for ChIP assay. The ChIP procedure was performed with a kit from Upstate biotechnology following the manufacturer's instructions. The NFκB p65 antibody (Cell Signaling Technology, Cat# 8242) was used for the immunoprecipitation. The Rabbit IgG antibody was served as a negative control. The Hom-1 promotor region containing a putative NFκB binding site was amplified with specific primers 5′-[…]-3′ and 5′-[…]-3′. All PCR products were separated on 1% agarose gel and visualized by ethidium bromide staining.

Hom-1 expression in TAMs = experiment: DOX induction of Hom-1 expression; format: cell-based, human
Procedure: (§6) Total RNA was isolated by the TRIzol reagent (Life Technologies) and RNA amounts were measured by NanoDrop 2000 (Thermo Scientific). Equal amount of RNA was used for first-strand cDNA synthesis with SuperScript III First-Strand Synthesis System (Life Technologies) according to the manufacturer's protocol. The AccuPrime Taq DNA polymerase system (Life Technologies) was used to amplify Hom-1 cDNA with conventional PCR. Quantitative measurements of Hom-1 and other cDNA were carried out with SYBR Green, using a Mastercycler ep Gradient S (Eppendorf). GAPDH was used as a house keeping gene to normalize mRNA expression. Relative expression profiles of mRNAs were calculated using the comparative Ct method (DDCT method).
as §3, with “After gently shaking, the plate was incubated at 37° C., 5% CO2 for 3-5 days. The en bloc tissues were then subjected to single 1 cell isolation and analysis as described.” left out

[4] = system: normal epithelial cells of colon mucosal tissues; experiment: en bloc control colon mucosal tissue culture: normal epithelial cell death by PI-staining and FACS; format: cell-based, human; details: DOX 3 days
Procedure: as §4, §5
Tumor tissue were washed with 1×PBS buffer plus antibiotics and then cut into 0.5 cm pieces. Tissues were cultured in 2 mL of RPMI 1640 medium, supplemented with 2-10% FBS (Sigma) and 1% antibiotic-antimycotic solution (Gibco) in 24-well plate (Corning). The cultures were incubated at a 37° C., 5% CO2 incubator. […]
(§7) Single cell suspensions generated from en bloc tissue culture were washed with FACS staining solution (PBS plus 2% FBS), fixed and permeabilized (Invitrogen) and then stained with Ber-EP4 antibodies for normal epithelial cells and CK7, CK19 and CK20 for cancer cells for 30 minutes on ice. […] Cell viability were then analyzed with a flow cytometry.

[5] = system: non-small cell lung cancer (NSCLC); experiment: en bloc tumor culture with chemotherapeutic agent and Hom-1-TAMs: NSCLC; format: cell-based; details: agent plus Hom-1-TAMs
Procedure: as §1, §2, §3

primary human NSCLC = experiment: individual NSG-PDX models of primary human NSCLC; format: in vivo, NSG mice; details: infusion of PD-1 antibody alone
Description: Specifically, individual NSG-PDX models of primary NSCLC were generated by engrafting small pieces of primary NSCLC tissues into subcutaneous space on the dorsal lateral side of NSG mice.
Individual NSG-PDX models of primary human lung cancers were developed according to standard procedure. All animal experiments were approved by the Institutional Animal Care and Use Committee. Briefly, 8-week-old NOD.Cg-Prkdc^scid Il2rg^tm1Wjl/SzJ mice (commonly known as NOD scid gamma, or NSG mice) were purchased from the Jackson Laboratory and maintained under specific pathogen-free conditions. NSCLC tumors were cut into around 0.5 cm pieces and then surgically implanted into subcutaneous space on the dorsal side of NSG mice. […] The tumor growth was monitored twice weekly and measured by a caliper for 6 weeks. Tumor volumes were calculated according to the formula ½ (length×width^2).

[6] = system: TAMs and Treg in NSCLC-TME; experiment: en bloc NSCLC culture: effects of PD-1 antibody on TAMs and Treg (FACS, qRT-PCR of Hom-1); format: cell-based, human; details: 1 μg/mL Pembrolizumab, 48 hours
Procedure: The effects of the treatment on TAMs were determined by FACS analysis of cell surface expression of CD68 and CD206 and qRT-PCR analysis of Hom-1 expression levels.
as §6
Tumor tissue were washed with 1×PBS buffer plus antibiotics and then cut into 0.5 cm pieces. Tissues were cultured in 2 mL of RPMI 1640 medium, supplemented with 2-10% FBS (Sigma) and 1% antibiotic-antimycotic solution (Gibco) in 24-well plate (Corning). The cultures were incubated at a 37° C., 5% CO2 incubator. […] To evaluate the effect of chemotherapeutic agents, chemo-reagents at indicated concentration or PBS was used instead of the anti-PD-1 antibody. […]

CD8 T cells in NSCLC-TME = experiment: en bloc NSCLC culture: PD-1 antibody activation of CD8 T cells (FACS and ELISA of IL-2, IFN-γ); format: cell-based, human
Procedure: Tumor infiltrating T (TIL) cells and TAMs were then isolated, and their functional status were determined by FACS analysis.
Single cell suspensions were then generated and stained with FITC conjugated anti-CD8 antibody. The cells were then fixed, permeabilized, stained with PE-conjugated anti-IL2, or anti-IFNy antibodies and analyzed by a flow cytometry.
The culture media were collected after 48 hours. The levels of IL-2, and IFN-γ were quantified using ELISA kits, and statistical significance was determined by a two-way ANOVA analysis.
Levels of IL-1B, IL-2, IFN-γ and TNF-α were quantified using ELISA kits obtained from eBiosciences. Analyses were conducted according to the manufacturer's instructions. Triplicate wells were plated for each condition.
as §3, with “After gently shaking, the plate was incubated at 37° C., 5% CO2 for 3-5 days. The en bloc tissues were then subjected to single 1 cell isolation and analysis as described.” left out

NSCLC cancer cells = experiment: en bloc NSCLC culture: cancer cell viability by PI-staining and FACS; format: cell-based, human; details: PD-1 antibody alone, 5 days
Procedure: Single cell suspensions were then obtained by mechanical disruption. The tumor cells were fixed and permeabilized, and were stained with CK7 antibodies and non-tumor epithelial cells were stained with EP4 antibodies. The cells were labeled with PI and percentage of PI positive cells were determined by FACS analysis.
As TME has been implicated in ICI resistance, it was next shown that reversal of immune suppression at NSCLC-TME increased efficacy of PD-1 antibodies. Specifically, en block NSCLC or control nLung tissues were treated with PD-1 or control antibodies, and co-cultured with autologous TAMs transfected with Hom-1 or control GFP. The effects of co-culturing were determined by FACS analysis of cancer or normal epithelial cell viability.
Tumor tissue were washed with 1×PBS buffer plus antibiotics and then cut into 0.5 cm pieces. Tissues were cultured in 2 mL of RPMI 1640 medium, supplemented with 2-10% FBS (Sigma) and 1% antibiotic-antimycotic solution (Gibco) in 24-well plate (Corning). […]
as §7

COc1cccc2c1C(=O)c1c(O)c3c(c(O)c1C2=O)C[C@@](O)(C(=O)CO)C[C@@H]3O[C@H]1C[C@H](N)[C@H](O)[C@H](C)O1 [DOX, Doxorubicin]
tumoricidal effects promoted by Hom-1-TAMs (stomach cancer): promotes tumoricidal function | inhibition of CRC tumorigenesis (primary human CRC): small discernable inhibition on CRC tumorigenesis | NFκB expression (NFκB): induces NFκB expression in primary human monocytes in a dosage dependent manner | CD4 T cell differentiation into Treg cells [1]: reduced CD4 T cell differentiation into Treg cells | CD8 T cell activation [1]: increased CD8 T cell activation | TAM phenotype (M1/M2 markers and cytokines) [1]: shifted the population of TAMs from M2-like phenotype to M1-like phenotype | cytocidal effects on tumor cells ([2]; en bloc CRC culture, agent alone, dose range): dosage-dependent cytocidal effects on tumor cells | cytocidal effects on tumor cells ([2]; en bloc CRC, DOX alone at non-cytotoxic concentration, 5 days): little cytocidal effects on tumor cells | tumoricidal effects promoted by Hom-1-TAMs (PDAC): promotes tumoricidal function | tumoricidal effects promoted by Hom-1-TAMs (esophageal cancer): promotes tumoricidal function | interaction of NFκB with Hom-1 promoter [3]: promoted the interaction of NFκB with Hom-1 promoter | Hom-1 expression (Hom-1 expression in TAMs; cancer cells and macrophages): potent inducer of Hom-1 expression both in cancer cells and in macrophages | TAM Hom-1 expression (Hom-1 expression in TAMs; en bloc CRC culture): induced TAM Hom-1 expression in the en bloc CRC culture in a dosage dependent manner | cytotoxic effects on normal epithelial cells [4]: less cytotoxic effects on normal epithelial cells | tumoricidal effects promoted by Hom-1-TAMs [5]: promotes tumoricidal function

Nc1ccn([C@@H]2O[C@H](CO)[C@@H](O)C2(F)F)c(=O)n1 [Gemcitabine]
tumoricidal effects promoted by Hom-1-TAMs (PDAC): promoted

Pembrolizumab [PD-1 antibody]
inhibition of tumorigenesis (primary human NSCLC): modest inhibition of tumorigenesis | phenotypical changes of Treg cells and TAMs [6]: no significant phenotypical changes of the Treg cells and TAMs | expression of Hom-1 in TAMs ([6]; qRT-PCR): did not alter the expression of Hom-1 in TAMs | CD8 T cell activation (expression and secretion of IL-2 and IFN-γ) (CD8 T cells in NSCLC-TME; 1 μg/mL Pembrolizumab vs human IgG4, 24 or 48 hours): activates CD8 T cells in TME; also recorded: activates CD8^+ CTL | dosage dependence of PD-1 antibody effect on CD8 T cell activation (CD8 T cells in NSCLC-TME; various concentrations, 48 hours, ELISA): dosage dependent | PI-staining of tumor cells (tumoricidal effect) (NSCLC cancer cells): modest tumoricidal effects on cancer cells | PI-staining of tumor cells (tumoricidal effect) (NSCLC cancer cells; listed as anti-PD-1 antibodies): modest increase of PI-staining of tumor cells
